# Data as given in the NIST ThermoML archive (doi:10.1016/j.tca.2015.03.023).
# Numbers after ± are expanded uncertainties.
# What was measured:
# [1] = 298.15 K, Liquid
# [2] = mn = molality of the nth substance listed, in mol/kg; settings: 298.15 K, 100 kPa, Liquid; for viscosity: Capillary tube (Ostwald / Ubbelohde) method; for speed of sound: Frequency=1 MHz, Linear variable-path acoustic interferometer; for mass density: Vibrating tube method; for molar conductivity: Alternating current cell with electrodes
smiles,measurement,setting,value
CNC=O [N-methylformamide],speed of sound,"[1]; 100 kPa, Frequency=1 MHz, Linear variable-path acoustic interferometer",1430.3 ± 2.5 m/s
same,viscosity,"[1]; 101.33 kPa, Capillary tube (Ostwald / Ubbelohde) method",1.653 ± 0.034 mPa·s
same,mass density,"[1]; 101.33 kPa, Vibrating tube method",999.12 ± 1 kg/m3
CNC=O [N-methylformamide] + [K+].[O-][Cl+3]([O-])([O-])[O-],viscosity,[2]; m2 = 0,1.653 ± 0.034 mPa·s
same,speed of sound,[2]; m2 = 0,1430.3 ± 2.5 m/s
same,mass density,[2]; m2 = 0,999.12 ± 1 kg/m3
CNC=O [N-methylformamide] + [Li+].[O-][Cl+3]([O-])([O-])[O-],viscosity,[2]; m2 = 0,1.653 ± 0.034 mPa·s
same,speed of sound,[2]; m2 = 0,1430.3 ± 2.5 m/s
same,mass density,[2]; m2 = 0,999.12 ± 1 kg/m3
CNC=O [N-methylformamide] + [Na+].[O-][Cl+3]([O-])([O-])[O-],viscosity,[2]; m2 = 0,1.653 ± 0.034 mPa·s
same,speed of sound,[2]; m2 = 0,1430.3 ± 2.5 m/s
same,mass density,[2]; m2 = 0,999.12 ± 1 kg/m3
[Li+].[O-][Cl+3]([O-])([O-])[O-] [lithium perchlorate] + CNC=O,molar conductivity,[2]; m1 = 0.0001214,0.000939 ± 0.0002 S·m2/mol
same,molar conductivity,[2]; m1 = 0.0001462,0.000926 ± 0.0002 S·m2/mol
same,molar conductivity,[2]; m1 = 0.0001817,0.000907 ± 0.0002 S·m2/mol
same,molar conductivity,[2]; m1 = 0.0002036,0.000895 ± 0.0002 S·m2/mol
same,molar conductivity,[2]; m1 = 0.0002283,0.000879 ± 0.0002 S·m2/mol
same,molar conductivity,[2]; m1 = 0.0002525,0.000875 ± 0.0002 S·m2/mol
same,molar conductivity,[2]; m1 = 0.0002752,0.000854 ± 0.0002 S·m2/mol
same,molar conductivity,[2]; m1 = 0.0003,0.000841 ± 0.0002 S·m2/mol
same,molar conductivity,[2]; m1 = 0.0003244,0.000831 ± 0.0002 S·m2/mol
same,molar conductivity,[2]; m1 = 0.0003557,0.000815 ± 0.0002 S·m2/mol
same,molar conductivity,[2]; m1 = 0.0003756,0.000809 ± 0.0002 S·m2/mol
same,molar conductivity,[2]; m1 = 0.0004004,0.000795 ± 0.0002 S·m2/mol
same,molar conductivity,[2]; m1 = 0.0004406,0.000783 ± 0.0002 S·m2/mol
same,molar conductivity,[2]; m1 = 0.0004687,0.000769 ± 0.0002 S·m2/mol
same,viscosity,[2]; m1 = 0.015,1.668 ± 0.035 mPa·s
same,viscosity,[2]; m1 = 0.0301,1.682 ± 0.035 mPa·s
same,viscosity,[2]; m1 = 0.0452,1.696 ± 0.035 mPa·s
same,viscosity,[2]; m1 = 0.0603,1.71 ± 0.036 mPa·s
same,viscosity,[2]; m1 = 0.0755,1.725 ± 0.036 mPa·s
same,viscosity,[2]; m1 = 0.0907,1.738 ± 0.036 mPa·s
same,speed of sound,[2]; m1 = 0.015,1433.8 ± 2.5 m/s
same,speed of sound,[2]; m1 = 0.0301,1447.3 ± 2.5 m/s
same,speed of sound,[2]; m1 = 0.0452,1468.1 ± 2.5 m/s
same,speed of sound,[2]; m1 = 0.0604,1494.8 ± 2.5 m/s
same,speed of sound,[2]; m1 = 0.0755,1529.4 ± 2.6 m/s
same,speed of sound,[2]; m1 = 0.0907,1569.9 ± 2.6 m/s
same,mass density,[2]; m1 = 0.015,999.44 ± 1 kg/m3
same,mass density,[2]; m1 = 0.0301,999.85 ± 1 kg/m3
same,mass density,[2]; m1 = 0.0452,1000.33 ± 1 kg/m3
same,mass density,[2]; m1 = 0.0603,1000.86 ± 1 kg/m3
same,mass density,[2]; m1 = 0.0755,1001.44 ± 1 kg/m3
same,mass density,[2]; m1 = 0.0907,1002.06 ± 1 kg/m3
[K+].[O-][Cl+3]([O-])([O-])[O-] [potassium perchlorate] + CNC=O,molar conductivity,[2]; m1 = 0.0004439,0.00119 ± 0.0002 S·m2/mol
same,molar conductivity,[2]; m1 = 0.0005285,0.00117 ± 0.0002 S·m2/mol
same,molar conductivity,[2]; m1 = 0.0006265,0.00115 ± 0.0002 S·m2/mol
same,molar conductivity,[2]; m1 = 0.0006838,0.00113 ± 0.0002 S·m2/mol
same,molar conductivity,[2]; m1 = 0.000722,0.00113 ± 0.0002 S·m2/mol
same,molar conductivity,[2]; m1 = 0.0007846,0.00112 ± 0.0002 S·m2/mol
same,molar conductivity,[2]; m1 = 0.0008474,0.00112 ± 0.0002 S·m2/mol
same,molar conductivity,[2]; m1 = 0.0009126,0.0011 ± 0.0002 S·m2/mol
same,molar conductivity,[2]; m1 = 0.0009685,0.00109 ± 0.0002 S·m2/mol
same,molar conductivity,[2]; m1 = 0.001057,0.00108 ± 0.0002 S·m2/mol
same,molar conductivity,[2]; m1 = 0.001149,0.00106 ± 0.0002 S·m2/mol
same,molar conductivity,[2]; m1 = 0.001216,0.00105 ± 0.0002 S·m2/mol
same,molar conductivity,[2]; m1 = 0.00129,0.00103 ± 0.0002 S·m2/mol
same,molar conductivity,[2]; m1 = 0.001359,0.00103 ± 0.0002 S·m2/mol
same,viscosity,[2]; m1 = 0.0153,1.66 ± 0.035 mPa·s
same,viscosity,[2]; m1 = 0.0304,1.665 ± 0.035 mPa·s
same,viscosity,[2]; m1 = 0.0457,1.669 ± 0.035 mPa·s
same,viscosity,[2]; m1 = 0.0609,1.674 ± 0.035 mPa·s
same,viscosity,[2]; m1 = 0.0759,1.677 ± 0.035 mPa·s
same,viscosity,[2]; m1 = 0.0911,1.681 ± 0.035 mPa·s
same,speed of sound,[2]; m1 = 0.0153,1435.8 ± 2.5 m/s
same,speed of sound,[2]; m1 = 0.0304,1449.9 ± 2.5 m/s
same,speed of sound,[2]; m1 = 0.0457,1471.8 ± 2.5 m/s
same,speed of sound,[2]; m1 = 0.0609,1499.7 ± 2.5 m/s
same,speed of sound,[2]; m1 = 0.0759,1533.7 ± 2.6 m/s
same,speed of sound,[2]; m1 = 0.0911,1577.6 ± 2.6 m/s
same,mass density,[2]; m1 = 0.0153,1000.04 ± 1 kg/m3
same,mass density,[2]; m1 = 0.0304,1001.02 ± 1 kg/m3
same,mass density,[2]; m1 = 0.0457,1002.07 ± 1 kg/m3
same,mass density,[2]; m1 = 0.0609,1003.15 ± 1 kg/m3
same,mass density,[2]; m1 = 0.0759,1004.25 ± 1 kg/m3
same,mass density,[2]; m1 = 0.0911,1005.39 ± 1 kg/m3
[Na+].[O-][Cl+3]([O-])([O-])[O-] [sodium perchlorate] + CNC=O,molar conductivity,[2]; m1 = 0.0001833,0.00113 ± 0.0002 S·m2/mol
same,molar conductivity,[2]; m1 = 0.0002554,0.00111 ± 0.0002 S·m2/mol
same,molar conductivity,[2]; m1 = 0.0003247,0.00109 ± 0.0002 S·m2/mol
same,molar conductivity,[2]; m1 = 0.0003795,0.00107 ± 0.0002 S·m2/mol
same,molar conductivity,[2]; m1 = 0.0004397,0.00105 ± 0.0002 S·m2/mol
same,molar conductivity,[2]; m1 = 0.0005067,0.00103 ± 0.0002 S·m2/mol
same,molar conductivity,[2]; m1 = 0.0005588,0.00101 ± 0.0002 S·m2/mol
same,molar conductivity,[2]; m1 = 0.000621,0.00099 ± 0.0002 S·m2/mol
same,molar conductivity,[2]; m1 = 0.0006765,0.000978 ± 0.0002 S·m2/mol
same,molar conductivity,[2]; m1 = 0.0007431,0.000963 ± 0.0002 S·m2/mol
same,molar conductivity,[2]; m1 = 0.0007846,0.000956 ± 0.0002 S·m2/mol
same,molar conductivity,[2]; m1 = 0.000822,0.000947 ± 0.0002 S·m2/mol
same,molar conductivity,[2]; m1 = 0.0008833,0.000925 ± 0.0002 S·m2/mol
same,molar conductivity,[2]; m1 = 0.0009622,0.000906 ± 0.0002 S·m2/mol
same,viscosity,[2]; m1 = 0.0145,1.664 ± 0.035 mPa·s
same,viscosity,[2]; m1 = 0.0298,1.674 ± 0.035 mPa·s
same,viscosity,[2]; m1 = 0.0448,1.683 ± 0.035 mPa·s
same,viscosity,[2]; m1 = 0.0599,1.692 ± 0.035 mPa·s
same,viscosity,[2]; m1 = 0.0751,1.702 ± 0.035 mPa·s
same,viscosity,[2]; m1 = 0.0902,1.711 ± 0.036 mPa·s
same,speed of sound,[2]; m1 = 0.0145,1434.9 ± 2.5 m/s
same,speed of sound,[2]; m1 = 0.0298,1449.6 ± 2.5 m/s
same,speed of sound,[2]; m1 = 0.0448,1470.8 ± 2.5 m/s
same,speed of sound,[2]; m1 = 0.0599,1499.1 ± 2.5 m/s
same,speed of sound,[2]; m1 = 0.0751,1534.9 ± 2.6 m/s
same,speed of sound,[2]; m1 = 0.0902,1576.7 ± 2.6 m/s
same,mass density,[2]; m1 = 0.0145,999.72 ± 1 kg/m3
same,mass density,[2]; m1 = 0.0298,1000.43 ± 1 kg/m3
same,mass density,[2]; m1 = 0.0448,1001.19 ± 1 kg/m3
same,mass density,[2]; m1 = 0.0599,1001.99 ± 1 kg/m3
same,mass density,[2]; m1 = 0.0751,1002.84 ± 1 kg/m3
same,mass density,[2]; m1 = 0.0902,1003.73 ± 1 kg/m3
